Data taken from patent US20260158026A1, “METHODS OF TREATING CANCER AND COMPOSITIONS FOR THE SAME” (MARSAL THERAPEUTICS, INC., priority 2022, published 2026).
Where two headings read alike, the source gives them in different places.

Key:
[1] = test system: GBM cells; assay: Combination with FDA approved oncology drugs, cell viability; format: cell-based, human; conditions: combination with Compound 1, FIGS. 12A-C
Source text: The FDA approved oncology drugs included temozolomide (TMZ), ixabepilone, cladribine, enzalutamide, omacetaxine mepesuccinate, epothilones, erubulin, and latrunculin.

[2] = test system: fibroblast cells from patient 1; assay: IC50 measurement, cell viability assay; format: cell-based; conditions: Homo sapiens
Procedure: (§1) Negative (100% DMSO) and positive (10 mM Staurosporine in DMSO) controls were placed in columns 10 and 11, respectively. The plate was diluted with 180 μL growth media/well and 5 μL of the resulting compound solution was transferred in quadruplicate to the assay plate. For the assay plate, 3,000 cells/well were plated in a 384 well clear bottom μL plate and allowed to adhere for at least 3 hours. […] The plates were incubated for 1, 2, 3, or 4 days. ATP levels were measured after incubation.

[3] = test system: Pancreatic Cancer (MIA-PACA); assay: IC50 measurement, cell viability assay; format: cell-based; conditions: Homo sapiens, MIA PaCa-2, 96 h, after 4 days of treatment
Procedure: as §1, with “incubation. Based on the results of Example 1, Compound 1 was selected for further evaluation.” for “incubation.”

[4] = test system: Lung Cancer (H1299); assay: IC50 measurement, cell viability assay; format: cell-based; conditions: Homo sapiens, NCI-H1299, 96 h, after 4 days of treatment
Procedure: as §1, with “incubation. Based on the results of Example 1, Compound 1 was selected for further evaluation.” for “incubation.”

[5] = test system: Patient 1 GBM cells; assay: IC50 measurement, cell viability assay; format: cell-based; conditions: Homo sapiens
Procedure: as §1, with “incubation. Based on the results of Example 1, Compound 1 was selected for further evaluation.” for “incubation.”

[6] = test system: Breast Cancer (MDA-MB-231); assay: IC50 measurement, cell viability assay; format: cell-based; conditions: Homo sapiens, MDA-MB-231, 96 h, after 4 days of treatment
Procedure: as §1, with “incubation. Based on the results of Example 1, Compound 1 was selected for further evaluation.” for “incubation.”

[7] = test system: Colon Cancer (HT-29); assay: IC50 measurement, cell viability assay; format: cell-based; conditions: Homo sapiens, HT-29, 96 h, after 4 days of treatment
Procedure: as §1, with “incubation. Based on the results of Example 1, Compound 1 was selected for further evaluation.” for “incubation.”

[8] = test system: GBM cells isolated from an additional five patients; assay: IC50 measurement, cell viability assay; format: cell-based; conditions: Homo sapiens, FIG. 2
Procedure: as §1
Serial dilutions in FIG. 2 show the effect of Compound 1 on GBM cells isolated from an additional five patients.

[9] = test system: patient-derived glioma cells; assay: siRNA knockdown of CRISPR-Cas9 hits followed by IC50 measurement; format: cell-based, human
Procedure: FIG. 7C is a graph of cell viability after treatment with Compound 1 for certain targets identified in FIG. 7B in patient-derived glioma cells followed by measurement of IC50 post-treatment with serial dilution of Compound 1 according to Example 8.
(§2) With reference to Step I in FIGS. 7A and 7B, whole genome CRISPR-Cas9 studies (B. Schmierer, Mol Systems Biol., 13, 945 (2017)) were carried out to identify potential targets that could explain the effect produced by Compound 1 on cancer cells. […] With reference to Step II in FIG. 7A and FIGS. 8A and 8B, after the CRISPR screening analysis was complete, the expression of identified hits were confirmed in GB cells as shown in FIG. 8A. The binding of Compound 1 to the identified hits was established via a pull-down assay using biotin labeled Compound 1 (FIG. 8B).

[10] = test system: GBM cancer cell line xenograft; assay: GBM xenograft stereotactically implanted into the brain of nude mice; format: in vivo; conditions: oral administration, versus mice not treated
Source text: A GBM cancer cell line was xenografted into 8-week old male nude mice and the tumor was allowed to develop for four weeks. The GBM cells were stereotactically implanted into the brain and allowed to grow for four weeks. After four weeks, treatment with Compound 1 via oral administration was started (Day 1). The mice were allowed to live until the ethical endpoint of the study was reached. Body weight and activity of animals were monitored continuously.

[11] = test system: identified hits (BMPR1A, UTP23, ARHGAP33, ITSN1); assay: Pull-down assay using biotin labeled Compound 1; format: binding, human; conditions: pull-down with biotin labeled Compound 1, FIG. 8B
Procedure: as §2

[12] = test system: fibroblast control; assay: Immunostaining and quantification of Annexin V positive cells; format: cell-based, human
[13] = test system: glioma cells from patient 1; assay: as above; format: cell-based, human
[14] = test system: Glioma cells; assay: Cytotoxicity and apoptosis assays (ApoTox-Glo); format: cell-based, human
[15] = test system: glioma cells from patient 1; assay: Immunostaining with Caspase 3 antibody (apoptosis marker); format: cell-based, human; conditions: compared to positive control staurosporin, FIGS. 4C and 4D
[16] = test system: Patient-derived GBM cells; assay: Long-term exposure assay; format: cell-based, human; conditions: 0.1 μM, incubated for 21 days, FIG. 3A
Procedure: Long-term Exposure Assay: Measurements for long-term assays were performed on days 4, 8, 14, and 21. 3,000 cells/well were plated in a 384 well plate (for day 4 assay), a 96 well plate (for day 8 assay), a 24 well plate (for day 14 assay), a 6 well plate (for day 21 assay), or a 10 cm plate (for day 30 assay) and allowed to adhere as above. Following this, media was exchanged to DMEM (without FBS+1× Penstrep) with either DMSO as control treatment or compound (at final concentration of 0.1 μM or 5 μM). Every four days, media was replaced with fresh DMEM (without FBS+1×Penstrep) comprising DMSO (control) or compound. At the end of days 4, 8, 14, and 21 cell viability assays were performed.
Patient-derived GBM cells were treated with Compound 1 at concentrations of 5 μM or 0.1 μM and incubated for 21 days. Fibroblasts were used as a control (FIG. 3B).

[17] = test system: GBM cells; assay: Mitochondrial membrane potential (JC1 staining); format: cell-based, human; conditions: CCCP positive control, DMSO negative control; 24, 48, 72 hrs, FIGS. 5A and 5B
Procedure: FIG. 5B is a bar graph of JC1 staining for mitochondrial depolarization in GMB cells treated with DMSO (negative control), CCCP (positive control), or Compound 1 (CMPD1) at 24 hrs, 48 hrs, and 72 hrs according to Example 6.
GBM cells were treated with Compound 1, carbonyl cyanide m-chlorophenyl hydrazine (CCCP; positive control), or DMSO (negative control) and the mitochondrial membrane potential (indicative of functional status of the GBM cells) was measured and analyzed.

[18] = test system: fibroblasts; assay: Long-term exposure assay; format: cell-based, human; conditions: 0.1 μM, 21 days, FIG. 3B
[19] = previous clinical trials; cited from earlier work
[20] = test system: GBM cells; assay: Mitochondria vacuolization by Transmission Electron Microscopy; format: cell-based, human; conditions: 2.5 μM, 5 μM, or 10 μM; 3, 6, 12, 24, and 48 hours
Procedure: Referring to FIGS. 6A and 6B, the GBM cells were analyzed via Transmission Electron (TEM) Microscopy after 3, 6, 12, 24, and 48 hours of incubation.

Nc1nc(Cl)nc2c1ncn2[C@H]1C[C@H](O)[C@@H](CO)O1 [cladribine]
Cell viability, Compound 1 in the additional presence of the named drug [1]: statistically significant decreases in cell viability

Fc1ccc(C(OCCN2CCN(CCCc3ccccc3)CC2)c2ccc(F)cc2)cc1 [Compound 1, vanoxerine]
IC50 ([2]; 96 h, serial dilution, 4 days of incubation, FIG. 1B, read-out: IC50 for fibroblast cells from patient 1): 13800 nM | IC50 ([2]; various cell passages, FIG. 1D, read-out: IC50 for the fibroblasts, range over cell passages): 16000 to 41000 nM | IC50 [3]: 2400 nM | IC50 [4]: 2100 nM | IC50 ([5]; 96 h, after 4 days of treatment, cell viability assay, read-out: Mean IC50, Brain Cancer (Patient 1 GBM cells)): 2200 nM | IC50 ([5]; Glioma cell, 96 h, serial dilution, 4 days of incubation, FIG. 1B, read-out: IC50 for glioma cells from patient 1): 4900 nM | IC50 ([5]; various cell passages, FIG. 1C, range printed from about 300 nM to about 6.4 μM, read-out: IC50 for GBM cells, lower end of range over cell passages): ~300 nM | IC50 ([5]; various cell passages, FIG. 1C, range printed from about 300 nM to about 6.4 μM, read-out: IC50 for GBM cells, upper end of range over cell passages): ~6400 nM | IC50 [6]: 2300 nM | IC50 [7]: 2400 nM | IC50 [8]: 4720 nM | IC50 after knockdown of ARHGAP33 versus controls ([9]; siRNA knockdown of ARHGAP33, FIG. 7C): higher IC50 values | IC50 after knockdown of BMPR1A versus controls ([9]; siRNA knockdown of BMPR1A, FIG. 7C): higher IC50 values | IC50 after knockdown of ITSN1 versus controls ([9]; siRNA knockdown of ITSN1, FIG. 7C): higher IC50 values | Physical activity [10]: increased physical activity | Tumor size ([10]; FIG. 9): reduction in tumor size | Bodyweight ([10]; FIG. 10): reduced loss in bodyweight | Life span ([10]; FIG. 11): increased life span | Binding to the identified hits [11]: established | Apoptosis positive cells, Annexin V [12]: do not produce more apoptosis positive cells | Apoptosis positive cells, Annexin V [13]: do not produce more apoptosis positive cells | Apoptosis (ApoTox-Glo) [14]: apoptosis was not initiated | Cytotoxicity (ApoTox-Glo) [14]: immense cytotoxicity | Apoptosis positive cells, Caspase 3 immunostaining [15]: did not produce apoptosis positive cells | Effect on GBM cells, long-term exposure [16]: eliminated the GBM cells | Mitochondrial membrane potential [17]: depolarization of mitochondria in a manner similar to CCCP | Cytotoxicity towards fibroblasts, long-term exposure [18]: without exhibiting cytotoxicity | Safety when administered to humans [19]: establishing its safety | Vacuolization of mitochondria (TEM) [20]: induced vacuolization of mitochondria

CNC(=O)c1ccc(N2C(=S)N(c3ccc(C#N)c(C(F)(F)F)c3)C(=O)C2(C)C)cc1F [enzalutamide]
Cell viability, Compound 1 in the additional presence of the named drug [1]: statistically significant decreases in cell viability

C/C(=C\c1csc(C)n1)[C@@H]1C[C@@H]2O[C@]2(C)CCC[C@H](C)[C@H](O)[C@@H](C)C(=O)C(C)(C)[C@@H](O)CC(=O)N1 [ixabepilone]
Cell viability, Compound 1 in the additional presence of the named drug [1]: statistically significant decreases in cell viability
